# Experimental data published in US9260429B2, “Pyrido[3,4-B]indoles and methods of use” (Medivation Technologies, Inc., priority 2008, dated 2016).
# Like-named read-outs stand apart in the source and are kept apart here.
# How the values were obtained:
# [1] = target: T1, human recombinant dopamine D2L receptor (Homo sapiens, UniProt P14416); assay: Dopamine D2L radioligand binding ([3H]Spiperone)
# T1 construct: expressed in transfected cells; host or cells: CHO cells
# Summary of the method: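 CHO-expressed receptor in 50 mM Tris-HCl pH 7.4 with ascorbic acid, 0.001% BSA, 150 mM NaCl; 0.16 nM [3H]spiperone, 120 min at 25 °C; nonspecific binding with haloperidol.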
# [2] = target: T2, human recombinant serotonin (5-Hydroxytryptamine) 5-HT2C receptor (Homo sapiens, UniProt P28335); assay: Serotonin 5-HT2C radioligand binding ([3H]Mesulergine)
# T2 construct: expressed in transfected cells; host or cells: CHO-K1 cells
# T2 sequence (P28335 33-458): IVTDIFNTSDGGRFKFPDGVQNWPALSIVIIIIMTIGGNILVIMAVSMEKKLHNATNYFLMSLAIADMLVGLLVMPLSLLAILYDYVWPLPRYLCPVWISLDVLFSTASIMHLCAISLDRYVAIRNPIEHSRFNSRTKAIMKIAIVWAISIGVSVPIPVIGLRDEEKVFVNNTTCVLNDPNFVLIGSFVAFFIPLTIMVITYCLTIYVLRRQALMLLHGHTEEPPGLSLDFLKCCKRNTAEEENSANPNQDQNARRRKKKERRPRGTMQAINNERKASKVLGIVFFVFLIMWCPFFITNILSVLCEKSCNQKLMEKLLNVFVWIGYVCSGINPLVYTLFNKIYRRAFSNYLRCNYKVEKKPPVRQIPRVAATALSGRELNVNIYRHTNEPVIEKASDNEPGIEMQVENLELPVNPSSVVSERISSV
# Procedure: Compounds of the invention were incubated with 1 nM [^3H]Mesulergine for 60 minutes at 25° C. Non-specific binding was estimated in the presence of 1 μM Mianserin. Receptor proteins were filtered and washed, the filters were then counted to determine [^3H]Mesulergine specifically bound. […] Biochemical assay results are presented as the percent inhibition of specific binding in Table 5.
# [3] = target: T3, human recombinant histamine H2 receptor (Homo sapiens, UniProt P25021); assay: Histamine H2 radioligand binding ([125I]Aminopotentidine)
# T3 construct: expressed in transfected cells; host or cells: CHO-K1 cells
# Summary of the method: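 Membranes of CHO-K1 cells expressing human H2 receptor incubated with 0.1 nM [125I]aminopotentidine, 120 min, 25 °C, 50 mM phosphate pH 7.4; nonspecific binding defined with 3 μM tiotidine.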
# [4] = target: T4, human recombinant histamine H1 receptor (Homo sapiens, UniProt P35367); assay: Histamine H1 radioligand binding ([3H]Pyrilamine)
# T4 construct: expressed in transfected cells; host or cells: CHO cells
# Summary of the method: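 Binding to the human recombinant histamine H1 receptor, expressed in CHO cells, was measured in a modified Tris-HCl buffer (50 mM Tris-HCl, pH 7.4, 2 mM MgCl2, 100 mM NaCl, 250 mM Sucrose). Compounds were incubated with 1.2 nM [3H]Pyrilamine for 180 minutes at 25° C, with 1 μM pyrilamine defining non-specific binding. After filtration and washing, filter counts gave percent inhibition of specific binding.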
# [5] = target: T5, human recombinant serotonin (5-Hydroxytryptamine) 5-HT6 receptor (Homo sapiens, UniProt P50406); assay: Serotonin 5-HT6 radioligand binding ([3H]LSD)
# T5 construct: expressed in transfected cells; host or cells: human HeLa cells
# Summary of the method: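 Human 5-HT6 receptor expressed in HeLa cells, in Tris-HCl pH 7.4 with 150 mM NaCl, ascorbic acid and BSA. Compounds at 1 μM or lower (1% DMSO) incubated 120 min at 37° C with 1.5 nM [3H]LSD. Non-specific binding defined with serotonin; filter counting gives % inhibition of specific binding.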
# [6] = target: T6, human recombinant serotonin (5-Hydroxytryptamine) 5-HT2A receptor (Homo sapiens, UniProt P28223); assay: Serotonin 5-HT2A radioligand binding ([3H]Ketanserin)
# T6 construct: expressed in transfected cells; host or cells: CHO-K1 cells
# Summary of the method: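 Membranes from CHO-K1 cells expressing the receptor, in 50 mM Tris-HCl pH 7.4, incubated 60 min at 25° C with 0.5 nM [3H]Ketanserin; 1 μM Mianserin defines non-specific binding. Filtration and counting; values are % inhibition of specific binding at 1 μM or lower, 1% DMSO.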
# [7] = 2 h, 1 μM ligand conc., read-out: Percent Inhibition of ligand binding Dopamine (1 μM ligand conc.) D2L
# [8] = 1 h, read-out: Percent Inhibition of ligand binding Serotonin (1 μM ligand concentration) 5-HT2C
# [9] = 1 μM, inhibition of specific [125I]Aminopotentidine binding, read-out: Binding data (Percentage Inhibition) Histamine Binding (1 μM) H2
# [10] = 1 μM, read-out: Binding data (Percentage Inhibition) Histamine Binding (1 μM) H1
# [11] = 2 h, read-out: Percent Inhibition of ligand binding Serotonin (1 μM ligand concentration) 5-HT6
# [12] = 1 h, read-out: Percent Inhibition of ligand binding Serotonin (1 μM ligand concentration) 5-HT2A
# T3 sequence (P25021 whole entry): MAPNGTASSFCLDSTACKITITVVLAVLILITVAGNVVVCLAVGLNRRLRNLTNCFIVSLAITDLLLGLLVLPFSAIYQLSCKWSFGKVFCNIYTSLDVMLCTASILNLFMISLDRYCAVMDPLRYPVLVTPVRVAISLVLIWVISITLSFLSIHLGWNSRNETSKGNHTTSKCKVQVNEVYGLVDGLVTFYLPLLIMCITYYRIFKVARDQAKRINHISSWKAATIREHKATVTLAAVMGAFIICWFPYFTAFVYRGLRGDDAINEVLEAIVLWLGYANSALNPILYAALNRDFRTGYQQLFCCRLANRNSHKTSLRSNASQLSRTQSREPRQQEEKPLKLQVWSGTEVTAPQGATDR
# T4 sequence (P35367 whole entry): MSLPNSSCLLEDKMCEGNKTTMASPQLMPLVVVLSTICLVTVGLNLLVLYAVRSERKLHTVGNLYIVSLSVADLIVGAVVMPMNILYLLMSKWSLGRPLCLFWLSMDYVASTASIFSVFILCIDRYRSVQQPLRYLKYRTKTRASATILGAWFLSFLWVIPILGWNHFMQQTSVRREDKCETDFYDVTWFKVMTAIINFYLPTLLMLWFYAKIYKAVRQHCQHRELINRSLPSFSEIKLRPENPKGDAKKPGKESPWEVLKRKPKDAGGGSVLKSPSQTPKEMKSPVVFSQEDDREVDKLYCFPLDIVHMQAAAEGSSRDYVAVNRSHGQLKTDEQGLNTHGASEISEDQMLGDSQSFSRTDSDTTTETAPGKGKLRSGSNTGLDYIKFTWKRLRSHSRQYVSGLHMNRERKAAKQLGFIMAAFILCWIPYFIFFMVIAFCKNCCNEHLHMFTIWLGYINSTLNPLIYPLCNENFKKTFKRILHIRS
# T6 sequence (P28223 whole entry): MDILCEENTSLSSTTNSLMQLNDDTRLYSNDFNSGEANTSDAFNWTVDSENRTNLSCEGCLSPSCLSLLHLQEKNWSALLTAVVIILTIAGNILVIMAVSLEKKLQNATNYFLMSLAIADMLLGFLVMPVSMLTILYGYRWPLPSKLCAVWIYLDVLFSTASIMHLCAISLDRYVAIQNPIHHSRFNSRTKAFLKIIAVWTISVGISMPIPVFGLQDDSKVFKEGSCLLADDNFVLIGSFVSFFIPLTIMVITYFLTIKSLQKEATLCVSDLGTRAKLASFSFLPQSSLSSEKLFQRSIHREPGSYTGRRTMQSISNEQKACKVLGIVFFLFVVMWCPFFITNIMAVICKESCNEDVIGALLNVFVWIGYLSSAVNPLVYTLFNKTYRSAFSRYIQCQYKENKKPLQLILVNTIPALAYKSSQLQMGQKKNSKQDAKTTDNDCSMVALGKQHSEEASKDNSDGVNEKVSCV
# T5 sequence (P50406 whole entry): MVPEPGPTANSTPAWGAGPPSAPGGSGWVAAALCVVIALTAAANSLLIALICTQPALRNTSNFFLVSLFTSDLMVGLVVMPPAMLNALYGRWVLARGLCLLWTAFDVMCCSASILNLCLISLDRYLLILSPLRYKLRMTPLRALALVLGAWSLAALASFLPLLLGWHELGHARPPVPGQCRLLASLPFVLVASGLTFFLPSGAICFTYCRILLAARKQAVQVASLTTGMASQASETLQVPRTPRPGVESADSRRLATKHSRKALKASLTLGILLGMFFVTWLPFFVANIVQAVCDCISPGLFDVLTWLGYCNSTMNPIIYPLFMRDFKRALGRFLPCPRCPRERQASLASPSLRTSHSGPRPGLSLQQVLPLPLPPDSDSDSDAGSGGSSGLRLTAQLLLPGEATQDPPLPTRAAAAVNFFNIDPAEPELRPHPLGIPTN
# T1 sequence (P14416 whole entry): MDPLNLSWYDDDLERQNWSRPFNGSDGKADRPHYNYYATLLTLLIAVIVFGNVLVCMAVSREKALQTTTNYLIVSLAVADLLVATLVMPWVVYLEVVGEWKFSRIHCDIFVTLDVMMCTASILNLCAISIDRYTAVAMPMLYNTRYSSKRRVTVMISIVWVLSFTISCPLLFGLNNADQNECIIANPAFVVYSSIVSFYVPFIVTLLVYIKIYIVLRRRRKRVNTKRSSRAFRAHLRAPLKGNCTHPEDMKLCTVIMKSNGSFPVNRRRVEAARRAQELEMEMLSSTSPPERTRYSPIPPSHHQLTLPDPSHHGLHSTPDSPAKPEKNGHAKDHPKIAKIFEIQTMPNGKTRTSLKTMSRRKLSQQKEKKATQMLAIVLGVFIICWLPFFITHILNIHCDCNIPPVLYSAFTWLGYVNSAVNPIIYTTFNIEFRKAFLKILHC
structure (smiles),measurement,setting,value
"CC1c2c(c3cc(Cl)ccc3n2C#Cc2ccc(Cl)cc2)CCN1C (stereo not shown) [Compound 132, 6-chloro-9-((4-chlorophenyl)ethynyl)-1,2-dimethyl-2,3,4,9-tetrahydro-1H-pyrido[3,4-b]indole]",inhibition at 1 µM,[1]; [7],-6%
same,inhibition at 1 µM,[2]; [8],94%
same,inhibition at 1 µM,[3]; [9],57%
same,inhibition at 1 µM,[4]; [10],14%
same,inhibition at 1 µM,[5]; [11],17%
same,inhibition at 1 µM,[6]; [12],80%
CCC1c2c(c3cc(C)ccc3n2C(=O)Cc2ccc(F)cc2)CCN1C (stereo not shown) [Compound 159],inhibition at 1 µM,[1]; [7],-9%
same,inhibition at 1 µM,[2]; [8],103%
same,inhibition at 1 µM,[3]; [9],20%
same,inhibition at 1 µM,[4]; [10],5%
same,inhibition at 1 µM,[5]; [11],46%
same,inhibition at 1 µM,[6]; [12],89%
"CCC1c2c(c3cc(C)ccc3n2/C=C(\C)c2ccc(Cl)cc2)CCN1C (stereo not shown) [Compound 160, 9-(2-(4-chlorophenyl)prop-1-enyl)-1-ethyl-2,6-dimethyl-2,3,4,9-tetrahydro-1H-pyrido[3,4-b]indole]",inhibition at 1 µM,[1]; [7],-1%
same,inhibition at 1 µM,[2]; [8],103%
same,inhibition at 1 µM,[3]; [9],67%
same,inhibition at 1 µM,[4]; [10],31%
same,inhibition at 1 µM,[5]; [11],24%
same,inhibition at 1 µM,[6]; [12],95%
"C/C(=C\n1c2c(c3cc(C)ccc31)CCN(C)C2C)c1ccc(Cl)cc1 (stereo not shown) [Compound 161, 9-(2-(4-chlorophenyl)prop-1-enyl)-1,2,6-trimethyl-2,3,4,9-tetrahydro-1H-pyrido[3,4-b]indole]",inhibition at 1 µM,[1]; [7],0%
same,inhibition at 1 µM,[2]; [8],99%
same,inhibition at 1 µM,[3]; [9],82%
same,inhibition at 1 µM,[4]; [10],51%
same,inhibition at 1 µM,[5]; [11],75%
same,inhibition at 1 µM,[6]; [12],96%
"CCC1c2c(c3cc(C)ccc3n2C#Cc2ccc(Cl)cc2)CCN1C (stereo not shown) [Compound 162, 9-((4-chlorophenyl)ethynyl)-1-ethyl-2,6-dimethyl-2,3,4,9-tetrahydro-1H-pyrido[3,4-b]indole]",inhibition at 1 µM,[1]; [7],4%
same,inhibition at 1 µM,[2]; [8],101%
same,inhibition at 1 µM,[3]; [9],33%
same,inhibition at 1 µM,[4]; [10],15%
same,inhibition at 1 µM,[5]; [11],12%
same,inhibition at 1 µM,[6]; [12],98%
Cc1ccc2c(c1)c1c(n2C(=O)Cc2ccc(Cl)cc2)C(c2ccccc2)N(C)CC1 (stereo not shown) [Compound 163],inhibition at 1 µM,[1]; [7],-12%
same,inhibition at 1 µM,[2]; [8],96%
same,inhibition at 1 µM,[3]; [9],27%
same,inhibition at 1 µM,[4]; [10],13%
same,inhibition at 1 µM,[5]; [11],89%
same,inhibition at 1 µM,[6]; [12],98%
"C/C(=C\n1c2c(c3cc(C)ccc31)CCN(C)C2c1ccccc1)c1ccc(Cl)cc1 (stereo not shown) [Compound 164, 9-(2-(4-chlorophenyl)prop-1-enyl)-2,6-dimethyl-1-phenyl-2,3,4,9-tetrahydro-1H-pyrido[3,4-b]indole]",inhibition at 1 µM,[1]; [7],-2%
same,inhibition at 1 µM,[2]; [8],98%
same,inhibition at 1 µM,[3]; [9],25%
same,inhibition at 1 µM,[4]; [10],12%
same,inhibition at 1 µM,[5]; [11],16%
same,inhibition at 1 µM,[6]; [12],95%
C/C(=C/n1c2c(c3cc(C)ccc31)CCN(C)C2C)c1ccccc1F (stereo not shown) [Compound 165],inhibition at 1 µM,[1]; [7],6%
same,inhibition at 1 µM,[2]; [8],93%
same,inhibition at 1 µM,[3]; [9],22%
same,inhibition at 1 µM,[4]; [10],21%
same,inhibition at 1 µM,[5]; [11],46%
same,inhibition at 1 µM,[6]; [12],85%
C/C(=C\n1c2c(c3cc(C)ccc31)CCN(C)C2C)c1ccccc1F (stereo not shown) [Compound 166],inhibition at 1 µM,[1]; [7],21%
same,inhibition at 1 µM,"[1]; compound concentration 1 μM, read-out: Percentage inhibition of ligand binding to D2L receptor",21%
same,inhibition at 3 µM,"[1]; compound concentration 3 μM, read-out: Percentage inhibition of ligand binding to D2L receptor",12%
same,inhibition at 10 µM,"[1]; compound concentration 10 μM, read-out: Percentage inhibition of ligand binding to D2L receptor",50%
same,inhibition at 1 µM,[2]; [8],96%
same,inhibition at 0.01 µM,"[2]; compound concentration 10 nM, read-out: Percentage inhibition of ligand binding to 5-HT2C receptor",33%
same,inhibition at 0.03 µM,"[2]; compound concentration 0.03 μM, read-out: Percentage inhibition of ligand binding to 5-HT2C receptor",62%
same,inhibition at 0.1 µM,"[2]; compound concentration 0.1 μM, read-out: Percentage inhibition of ligand binding to 5-HT2C receptor",87%
same,inhibition at 0.3 µM,"[2]; compound concentration 0.3 μM, read-out: Percentage inhibition of ligand binding to 5-HT2C receptor",93%
same,inhibition at 1 µM,"[2]; compound concentration 1 μM, read-out: Percentage inhibition of ligand binding to 5-HT2C receptor",96%
same,inhibition at 1 µM,[3]; [9],90%
same,inhibition at 1 µM,"[3]; compound concentration 1 μM, read-out: Percentage inhibition of ligand binding to H2 receptor",90%
same,inhibition at 1 µM,[4]; [10],79%
same,inhibition at 0.3 µM,"[4]; compound concentration 0.3 μM, read-out: Percentage inhibition of ligand binding to H1 receptor",23%
same,inhibition at 1 µM,"[4]; compound concentration 1 μM, read-out: Percentage inhibition of ligand binding to H1 receptor",79%
same,inhibition at 3 µM,"[4]; compound concentration 3 μM, read-out: Percentage inhibition of ligand binding to H1 receptor",77%
same,inhibition at 1 µM,[5]; [11],95%
same,inhibition at 0.01 µM,"[5]; compound concentration 10 nM, read-out: Percentage inhibition of ligand binding to 5-HT6 receptor",13%
same,inhibition at 0.03 µM,"[5]; compound concentration 0.03 μM, read-out: Percentage inhibition of ligand binding to 5-HT6 receptor",16%
same,inhibition at 0.1 µM,"[5]; compound concentration 0.1 μM, read-out: Percentage inhibition of ligand binding to 5-HT6 receptor",38%
same,inhibition at 0.3 µM,"[5]; compound concentration 0.3 μM, read-out: Percentage inhibition of ligand binding to 5-HT6 receptor",55%
same,inhibition at 1 µM,"[5]; compound concentration 1 μM, read-out: Percentage inhibition of ligand binding to 5-HT6 receptor",95%
same,inhibition at 1 µM,[6]; [12],102%
same,inhibition at 0.01 µM,"[6]; compound concentration 10 nM, read-out: Percentage inhibition of ligand binding to 5-HT2A receptor",15%
same,inhibition at 0.03 µM,"[6]; compound concentration 0.03 μM, read-out: Percentage inhibition of ligand binding to 5-HT2A receptor",46%
same,inhibition at 0.1 µM,"[6]; compound concentration 0.1 μM, read-out: Percentage inhibition of ligand binding to 5-HT2A receptor",74%
same,inhibition at 0.3 µM,"[6]; compound concentration 0.3 μM, read-out: Percentage inhibition of ligand binding to 5-HT2A receptor",81%
same,inhibition at 1 µM,"[6]; compound concentration 1 μM, read-out: Percentage inhibition of ligand binding to 5-HT2A receptor",102%
C/C(=C/n1c2c(c3cc(Cl)ccc31)CCN(C)C2C)c1ccccc1F (stereo not shown) [Compound 167],inhibition at 1 µM,[1]; [7],22%
same,inhibition at 1 µM,[2]; [8],95%
same,inhibition at 1 µM,[3]; [9],51%
same,inhibition at 1 µM,[4]; [10],64%
same,inhibition at 1 µM,[5]; [11],55%
same,inhibition at 1 µM,[6]; [12],88%
C/C(=C\n1c2c(c3cc(Cl)ccc31)CCN(C)C2C)c1ccccc1F (stereo not shown) [Compound 168],inhibition at 1 µM,[1]; [7],9%
same,inhibition at 1 µM,[2]; [8],96%
same,inhibition at 1 µM,[3]; [9],64%
same,inhibition at 1 µM,[4]; [10],85%
same,inhibition at 1 µM,[5]; [11],71%
same,inhibition at 1 µM,[6]; [12],94%
